What is called IC50 is the concentration that gives 50% inhibition.

In US9447038B2 (SANOFI, priority 2012, dated 2016) one finds IC50 data, which are given here for seven compounds.

Where a name gives a salt, the structure may show the parent alone.

Chain of human CXCR3-A receptor (P49682 whole entry): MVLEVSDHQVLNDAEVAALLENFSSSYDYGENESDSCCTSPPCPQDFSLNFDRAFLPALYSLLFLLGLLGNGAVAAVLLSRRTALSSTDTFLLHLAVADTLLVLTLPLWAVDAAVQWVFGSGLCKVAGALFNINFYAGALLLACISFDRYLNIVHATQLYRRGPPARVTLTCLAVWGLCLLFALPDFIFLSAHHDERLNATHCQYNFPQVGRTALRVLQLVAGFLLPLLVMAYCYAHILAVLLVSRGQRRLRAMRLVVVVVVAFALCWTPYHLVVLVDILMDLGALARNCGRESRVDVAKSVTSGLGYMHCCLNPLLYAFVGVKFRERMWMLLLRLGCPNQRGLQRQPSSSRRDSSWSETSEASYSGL

This assay concerns the target human CXCR3-A receptor (Homo sapiens (Human), UniProt P49682). As to the kind of experiment: 125I-CXCL10 competition radioligand binding assay.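 Note: One-hour incubation of membranes with tracer, bound radioligand separated by glass fibre filtration, IC50 derived from four-parameter nonlinear fit of competition curves.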 The note with it: displacement of 125I-CXCL10 from membranes of CHO cells expressing human recombinant CXCR3-A. (In general: Loss of bound radioactivity is the signal in a displacement assay; it reports binding, not function.)
`CCCN(Cc1ccc(OCCN2C(=O)CCC2=O)c(F)c1)C(c1ccc(Cl)cc1)C(C)C(=O)O` (stereo not shown) [Example 195, 3-(4-Chloro-phenyl)-3-({4-[2-(2,5-dioxo-pyrrolidin-1-yl)-ethoxy]-3-fluoro-benzyl}-propyl-amino)-2-methyl-propionic acid]: the IC50 amounted to 342 nM.
With `CCCN(Cc1ccc(OCCN2C(=O)CCC2=O)c(CC)c1)C(c1ccc(Cl)cc1)C1(C(=O)O)CC1` (stereo not shown) [Example 196, 1-[(4-Chloro-phenyl)-({4-[2-(2,5-dioxo-pyrrolidin-1-yl)-ethoxy]-3-ethyl-benzyl}-propyl-amino)-methyl]-cyclopropanecarboxylic acid], the IC50 amounted to 630 nM.
In the case of `Cc1cc(CN(CC2CCCC2)[C@@H](CC(=O)O)c2ccc(Cl)cc2)ccc1OCCN1C(=O)CN(C)C1=O` [Example 199, (S)-3-(4-Chloro-phenyl)-3-(cyclopentylmethyl-{3-methyl-4-[2-(3-methyl-2,5-dioxo-imidazolidin-1-yl)-ethoxy]-benzyl}-amino)-propionic acid], the IC50 was 175 nM.
Then `Cc1cc(CN(CC2CCCC2)[C@@H](CC(=O)O)c2ccc(Cl)c(Cl)c2)ccc1OCCN1C(=O)CN(C)C1=O` [Example 200, (S)-3-(Cyclopentylmethyl-{3-methyl-4-[2-(3-methyl-2,5-dioxo-imidazolidin-1-yl)-ethoxy]-benzyl}-amino)-3-(3,4-dichloro-phenyl)-propionic acid; hydrochloride], with 234 nM; and `CN1CC(=O)N(CCOc2ccc(CN(CC3CCCC3)[C@H](CC(=O)O)c3ccc(Cl)cc3)cc2Cl)C1=O` [Example 201, (R)-3-({3-Chloro-4-[2-(3-methyl-2,5-dioxo-imidazolidin-1-yl)-ethoxy]-benzyl}-cyclopentylmethyl-amino)-3-(4-chloro-phenyl)-propionic acid], with 886 nM; and `CN1CC(=O)N(CCOc2ccc(CN(CC3CCCCC3)[C@H](CC(=O)O)c3ccc(Cl)cc3)cc2Cl)C1=O` [Example 202, (R)-3-({3-Chloro-4-[2-(3-methyl-2,5-dioxo-imidazolidin-1-yl)-ethoxy]-benzyl}-cyclohexylmethyl-amino)-3-(4-chloro-phenyl)-propionic acid], with 810 nM.
Then `CCCN(Cc1ccc(OCCN2C(=O)CCC2=O)c(OC)c1)C(CC(=O)O)c1cc(C)sc1C` (stereo not shown) [Example 204, 3-(2,5-Dimethyl-thiophen-3-yl)-3-({4-[2-(2,5-dioxo-pyrrolidin-1-yl)-ethoxy]-3-methoxy-benzyl}-propyl-amino)-propionic acid; hydrochloride], with 197 nM.
